Each structure is given as a SMILES string. In brackets after ≈: the same amount, converted by molar mass.

Among the data in ChEMBL document CHEMBL2375319, “Design, synthesis and structure-activity relationships of 3,5-diaryl-1H-pyrazoles as inhibitors of arylamine N-acetyltransferase” (Bioorg Med Chem Lett, 2013) are MIC values, retold here.

For this assay, the system named is Mycobacterium tuberculosis. The assay is described as follows: Antimycobacterial activity against Mycobacterium bovis BCG after 28 days. To be noted: variant bovis BCG, 672 h. The class given is functional.

Take `COc1ccc(-c2cc(-c3cc(OC)ccc3O)[nH]n2)cc1`: the minimum inhibitory concentration (MIC) is 34 µM (≈ 10.1 µg/mL).
